Measurements: ChEMBL document CHEMBL1671626, “In vitro profiling of ceftaroline against a collection of recent bacterial clinical isolates from across the United States” (2008)
≈ marks a conversion by molar mass, not a printed value.

What was measured:
Format in all cases: functional
Staphylococcus aureus [1] = test: Antibacterial activity against methicillin-susceptible Staphylococcus aureus assessed as resistant isolates by CLSI M7-A7 broth microdilution method
Moraxella catarrhalis [2] = test: Antibacterial activity against beta lactamase-positive Moraxella catarrhalis by CLSI M7-A7 broth microdilution method
Escherichia coli [3] = test: Antibacterial activity against ceftazidime-susceptible Escherichia coli assessed as susceptible isolates by CLSI M7-A7 broth microdilution method
Moraxella catarrhalis [4] = test: Antibacterial activity against beta lactamase-positive Moraxella catarrhalis assessed as susceptible isolates by CLSI M7-A7 broth microdilution method
Klebsiella pneumoniae [5] = test: Antibacterial activity against ceftazidime-susceptible Klebsiella pneumoniae by CLSI M7-A7 broth microdilution method
Providencia sp. = test: Antibacterial activity against ceftazidime-susceptible Providencia sp. assessed as susceptible isolates by CLSI M7-A7 broth microdilution method
Staphylococcus aureus [6] = test: Antibacterial activity against methicillin-susceptible Staphylococcus aureus assessed as susceptible isolates by CLSI M7-A7 broth microdilution method
Acinetobacter [7] = test: Antibacterial activity against multidrug-resistant Acinetobacter assessed as susceptible isolates by CLSI M7-A7 broth microdilution method
Enterobacteriaceae [8] = test: Antibacterial activity against ceftazidime-nonsusceptible Enterobacteriaceae by CLSI M7-A7 broth microdilution method
Streptococcus pyogenes [9] = test: Antibacterial activity against erythromycin-susceptible Streptococcus pyogenes by CLSI M7-A7 broth microdilution method
Enterococcus faecium = test: Antibacterial activity against vancomycin-resistant Enterococcus faecium by CLSI M7-A7 broth microdilution method
Enterobacteriaceae [10] = test: Antibacterial activity against ceftazidime-nonsusceptible Enterobacteriaceae assessed as susceptible isolates by CLSI M7-A7 broth microdilution method
Staphylococcus aureus [11] = test: Antibacterial activity against coagulase-negative and oxacillin-resistant Staphylococcus aureus assessed as resistant isolates by CLSI M7-A7 broth microdilution method
Enterobacter cloacae [12] = test: Antibacterial activity against ceftazidime-susceptible Enterobacter cloacae assessed as susceptible isolates by CLSI M7-A7 broth microdilution method
Escherichia coli [13] = test: Antibacterial activity against ceftazidime-susceptible Escherichia coli by CLSI M7-A7 broth microdilution method
Streptococcus pyogenes [14] = test: Antibacterial activity against erythromycin-nonsusceptible Streptococcus pyogenes by CLSI M7-A7 broth microdilution method
Staphylococcus aureus [15] = test: Antibacterial activity against coagulase-negative and oxacillin-susceptible Staphylococcus aureus assessed as susceptible isolates by CLSI M7-A7 broth microdilution method
Acinetobacter [16] = test: Antibacterial activity against imipenem-susceptible Acinetobacter by CLSI M7-A7 broth microdilution method
Staphylococcus aureus [17] = test: Antibacterial activity against coagulase-negative and oxacillin-resistant Staphylococcus aureus by CLSI M7-A7 broth microdilution method
Acinetobacter [18] = test: Antibacterial activity against imipenem-susceptible Acinetobacter assessed as resistant isolates by CLSI M7-A7 broth microdilution method
Proteus mirabilis = test: Antibacterial activity against ceftazidime-susceptible Proteus mirabilis by CLSI M7-A7 broth microdilution method
Streptococcus pneumoniae [19] = test: Antibacterial activity against penicillin-susceptible Streptococcus pneumoniae by CLSI M7-A7 broth microdilution method
Haemophilus influenzae [20] = test: Antibacterial activity against beta lactamase-positive Haemophilus influenzae assessed as susceptible isolates by CLSI M7-A7 broth microdilution method
Haemophilus influenzae [21] = test: Antibacterial activity against beta lactamase-negative Haemophilus influenzae assessed as susceptible isolates by CLSI M7-A7 broth microdilution method
Enterobacter cloacae [22] = test: Antibacterial activity against ceftazidime-nonsusceptible Enterobacter cloacae assessed as susceptible isolates by CLSI M7-A7 broth microdilution method
Streptococcus pneumoniae [23] = test: Antibacterial activity against penicillin-resistant Streptococcus pneumoniae assessed as susceptible isolates by CLSI M7-A7 broth microdilution method
Staphylococcus aureus [24] = test: Antibacterial activity against methicillin-resistant Staphylococcus aureus assessed as resistant isolates by CLSI M7-A7 broth microdilution method
Morganella morganii [25] = test: Antibacterial activity against ceftazidime-susceptible Morganella morganii by CLSI M7-A7 broth microdilution method
Streptococcus agalactiae [26] = test: Antibacterial activity against erythromycin-susceptible Streptococcus agalactiae by CLSI M7-A7 broth microdilution method
Acinetobacter [27] = test: Antibacterial activity against imipenem-susceptible Acinetobacter assessed as susceptible isolates by CLSI M7-A7 broth microdilution method
Streptococcus pneumoniae [28] = test: Antibacterial activity against penicillin-susceptible Streptococcus pneumoniae assessed as resistant isolates by CLSI M7-A7 broth microdilution method
Citrobacter freundii = test: Antibacterial activity against ceftazidime-susceptible Citrobacter freundii assessed as susceptible isolates by CLSI M7-A7 broth microdilution method
Morganella morganii [29] = test: Antibacterial activity against ceftazidime-susceptible Morganella morganii assessed as resistant isolates by CLSI M7-A7 broth microdilution method
Streptococcus agalactiae [30] = test: Antibacterial activity against erythromycin-nonsusceptible Streptococcus agalactiae by CLSI M7-A7 broth microdilution method
Klebsiella pneumoniae [31] = test: Antibacterial activity against ceftazidime-susceptible Klebsiella pneumoniae assessed as resistant isolates by CLSI M7-A7 broth microdilution method
Enterococcus faecalis = test: Antibacterial activity against vancomycin-resistant Enterococcus faecalis by CLSI M7-A7 broth microdilution method
Staphylococcus aureus [32] = test: Antibacterial activity against methicillin-susceptible Staphylococcus aureus by CLSI M7-A7 broth microdilution method
Enterobacter cloacae [33] = test: Antibacterial activity against ceftazidime-nonsusceptible Enterobacter cloacae by CLSI M7-A7 broth microdilution method
Serratia marcescens [34] = test: Antibacterial activity against ceftazidime-susceptible Serratia marcescens assessed as resistant isolates by CLSI M7-A7 broth microdilution method
Serratia marcescens [35] = test: Antibacterial activity against ceftazidime-susceptible Serratia marcescens by CLSI M7-A7 broth microdilution method
Acinetobacter [36] = test: Antibacterial activity against multidrug-resistant Acinetobacter by CLSI M7-A7 broth microdilution method
Streptococcus pneumoniae [37] = test: Antibacterial activity against penicillin-resistant Streptococcus pneumoniae by CLSI M7-A7 broth microdilution method
Streptococcus viridans = test: Antibacterial activity against penicillin-susceptible Streptococcus viridans by CLSI M7-A7 broth microdilution method
Escherichia coli [38] = test: Antibacterial activity against ceftazidime-nonsusceptible Escherichia coli by CLSI M7-A7 broth microdilution method

SMILES: CO/N=C(\C(=O)N[C@@H]1C(=O)N2C(C(=O)O)=C(CSc3nc(=O)c(O)nn3C)CS[C@H]12)c1csc(N)n1 [CEFTRIAXONE]
- Activity (Staphylococcus aureus [1]): 0.3%
- MIC (Moraxella catarrhalis [2]): ≤ 0.25 µg/mL
- MIC50 (Moraxella catarrhalis [2]): ≤ 0.25 µg/mL
- MIC90 (Moraxella catarrhalis [2]): 1 µg/mL (≈ 1.8 µM)
- Activity (Escherichia coli [3]): 97.4%
- Activity (Moraxella catarrhalis [4]): 100%
- MIC (Klebsiella pneumoniae [5]): ≤ 0.06 µg/mL
- MIC50 (Klebsiella pneumoniae [5]): ≤ 0.06 µg/mL
- MIC90 (Klebsiella pneumoniae [5]): 0.12 µg/mL (≈ 0.216 µM)
- Activity (Providencia sp.): 100%
- Activity (Staphylococcus aureus [6]): 97.1%
- Activity (Acinetobacter [7]): 0%
- MIC50 (Enterobacteriaceae [8]): > 16 µg/mL
- MIC90 (Enterobacteriaceae [8]): > 16 µg/mL
- MIC (Streptococcus pyogenes [9]): ≤ 0.015 µg/mL
- MIC50 (Streptococcus pyogenes [9]): ≤ 0.015 µg/mL
- MIC90 (Streptococcus pyogenes [9]): 0.03 µg/mL (≈ 0.0541 µM)
- MIC (Enterococcus faecium): > 32 µg/mL
- MIC50 (Enterococcus faecium): > 32 µg/mL
- MIC90 (Enterococcus faecium): > 32 µg/mL
- Activity (Enterobacteriaceae [10]): 13.2%
- Activity (Staphylococcus aureus [11]): 22.1%
- Activity (Enterobacter cloacae [12]): 98%
- MIC50 (Escherichia coli [13]): ≤ 0.06 µg/mL
- MIC90 (Escherichia coli [13]): 0.12 µg/mL (≈ 0.216 µM)
- MIC50 (Streptococcus pyogenes [14]): 0.03 µg/mL (≈ 0.0541 µM)
- MIC90 (Streptococcus pyogenes [14]): 0.12 µg/mL (≈ 0.216 µM)
- Activity (Staphylococcus aureus [15]): 98%
- MIC50 (Acinetobacter [16]): 16 µg/mL (≈ 28.9 µM)
- MIC90 (Acinetobacter [16]): > 16 µg/mL
- MIC50 (Staphylococcus aureus [17]): 16 µg/mL (≈ 28.9 µM)
- MIC90 (Staphylococcus aureus [17]): > 32 µg/mL
- Activity (Acinetobacter [18]): 0%
- MIC50 (Proteus mirabilis): ≤ 0.06 µg/mL
- MIC90 (Proteus mirabilis): 0.12 µg/mL (≈ 0.216 µM)
- MIC50 (Streptococcus pneumoniae [19]): 0.03 µg/mL (≈ 0.0541 µM)
- MIC90 (Streptococcus pneumoniae [19]): 0.06 µg/mL (≈ 0.108 µM)
- Activity (Haemophilus influenzae [20]): 100%
- Activity (Haemophilus influenzae [21]): 100%
- Activity (Enterobacter cloacae [22]): 8.6%
- Activity (Streptococcus pneumoniae [23]): 79.4%
- Activity (Staphylococcus aureus [24]): 33.1%
- MIC (Morganella morganii [25]): ≤ 0.06 µg/mL
- MIC50 (Morganella morganii [25]): ≤ 0.06 µg/mL
- MIC90 (Morganella morganii [25]): 1 µg/mL (≈ 1.8 µM)
- MIC50 (Streptococcus agalactiae [26]): 0.06 µg/mL (≈ 0.108 µM)
- MIC90 (Streptococcus agalactiae [26]): 0.12 µg/mL (≈ 0.216 µM)
- Activity (Acinetobacter [27]): 44.7%
- Activity (Streptococcus pneumoniae [28]): 0%
- Activity (Citrobacter freundii): 100%
- Activity (Morganella morganii [29]): 0%
- MIC50 (Streptococcus agalactiae [30]): 0.06 µg/mL (≈ 0.108 µM)
- MIC90 (Streptococcus agalactiae [30]): 0.12 µg/mL (≈ 0.216 µM)
- Activity (Klebsiella pneumoniae [31]): 0%
- MIC (Enterococcus faecalis): > 1 µg/mL
- MIC50 (Staphylococcus aureus [32]): 2 µg/mL (≈ 3.61 µM)
- MIC90 (Staphylococcus aureus [32]): 4 µg/mL (≈ 7.21 µM)
- MIC50 (Enterobacter cloacae [33]): > 16 µg/mL
- MIC90 (Enterobacter cloacae [33]): > 16 µg/mL
- Activity (Serratia marcescens [34]): 0%
- MIC50 (Serratia marcescens [35]): 0.25 µg/mL (≈ 0.451 µM)
- MIC90 (Serratia marcescens [35]): 4 µg/mL (≈ 7.21 µM)
- MIC (Acinetobacter [36]): > 16 µg/mL
- MIC50 (Acinetobacter [36]): > 16 µg/mL
- MIC50 (Streptococcus pneumoniae [37]): 1 µg/mL (≈ 1.8 µM)
- MIC90 (Streptococcus pneumoniae [37]): 2 µg/mL (≈ 3.61 µM)
- MIC50 (Streptococcus viridans): 0.06 µg/mL (≈ 0.108 µM)
- MIC90 (Streptococcus viridans): 0.25 µg/mL (≈ 0.451 µM)
- MIC50 (Escherichia coli [38]): > 16 µg/mL
- MIC90 (Escherichia coli [38]): > 16 µg/mL
